Reference: the supplement of paper PMC4862054

Legend:
Test in all cases: normalised response (% of control), CellTiter-Glo; higher = more viable cells (100 = DMSO, 0 = benzethonium chloride kill control)
Conditions in all cases: incubation time: 72 h
BT-474 = tested on: BT-474
In short: (§1)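 After 72 h with compound in 384-well plates, breast cancer cell lines seeded as 20 µl suspension were read for CellTox Green fluorescence at 485/520 nm. CellTiter-Glo luminescence was then read after 10 min at room temperature. Compound was present at 5 concentrations in 10-fold steps over a 10,000-fold range set per compound, and plates were normalised to 0.1 % DMSO (100) and a positive kill control (0). Values are normalised signals, each at a single concentration.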

BT-549 = tested on: BT-549
In short: as §1

CAL-120 = tested on: CAL-120
In short: as §1

CAL-148 = tested on: CAL-148
In short: as §1

CAL-51 = tested on: CAL-51
In short: as §1

CAL-85-1 = tested on: CAL-85-1
In short: as §1

DU-4475 = tested on: DU-4475
In short: as §1

HCC1143 = tested on: HCC1143
In short: as §1

HCC1599 = tested on: HCC1599
In short: as §1

HCC1937 = tested on: HCC1937
In short: as §1

HDQ-P1 = tested on: HDQ-P1
In short: as §1

Hs578T = tested on: Hs578T
In short: as §1

MCF-10A = tested on: MCF-10A
In short: as §1

MDA-MB-231 = tested on: MDA-MB-231
In short: as §1

MDA-MB-436 = tested on: MDA-MB-436
In short: as §1

MDA-MB-453 = tested on: MDA-MB-453
In short: as §1

MDA-MB-468 = tested on: MDA-MB-468
In short: as §1

MFM-223 = tested on: MFM-223
In short: as §1

SK-BR-3 = tested on: SK-BR-3
In short: as §1

Structure (SMILES)	normalised response (BT-474) [%]	normalised response (BT-549) [%]	normalised response (CAL-120) [%]	normalised response (CAL-148) [%]	normalised response (CAL-51) [%]	normalised response (CAL-85-1) [%]	normalised response (DU-4475) [%]	normalised response (HCC1143) [%]	normalised response (HCC1599) [%]	normalised response (HCC1937) [%]	normalised response (HDQ-P1) [%]	normalised response (Hs578T) [%]	normalised response (MCF-10A) [%]	normalised response (MDA-MB-231) [%]	normalised response (MDA-MB-436) [%]	normalised response (MDA-MB-453) [%]	normalised response (MDA-MB-468) [%]	normalised response (MFM-223) [%]	normalised response (SK-BR-3) [%]
CCc1cncnc1N1CCN(Cc2nc3ccc(C(F)(F)F)cc3[nH]2)CC1 (1 nM)	107	108	101	106	125	97.3	103	99.5	114	95.5	105	101	106	105	107	115	109	103	110
CC[C@@H]1C(=O)N(C)c2cnc(Nc3ccc(C(=O)NC4CCN(C)CC4)cc3OC)nc2N1C1CCCC1 [BI 2536] (0.1 nM)	105	103	104	102	103	105	103	94.9	110	98.7	95.7	97.4	106	103	104	92.6	108	106	112
CC[C@@H]1C(=O)N(C)c2cnc(Nc3ccc(C(=O)NC4CCN(C)CC4)cc3OC)nc2N1C1CCCC1 [BI 2536] (1 nM)	101	98.2	97.2	112	133	100	107	100	108	94.6	97.8	96.7	102	101	100	84.6	92.6	96.5	97.2
O=C(O)CCCCC(CCSCc1ccccc1)SCc1ccccc1 (centres undefined) [CPI-613] (1 nM)	101	102	96.3	107	78.6	99.2	101	105	97.6	104	100	102	106	100	96.5	107	103	99.1	114
O=C(O)CCCCC(CCSCc1ccccc1)SCc1ccccc1 (centres undefined) [CPI-613] (10 nM)	105	89.8	98.7	103	95.5	97.8	104	108	118	99	102	96.6	112	96.2	105	105	101	105	109
C=CC(=O)Nc1cc2c(Nc3ccc(F)c(Cl)c3)ncnc2cc1OCCCN1CCOCC1 [Canertinib] (1 nM)	96.8	104	95.2	103	104	103	105	95.6	93.3	97.3	98.8	98.6	108	104	94.5	108	106	105	103
C=CC(=O)Nc1cc2c(Nc3ccc(F)c(Cl)c3)ncnc2cc1OCCCN1CCOCC1 [Canertinib] (10 nM)	106	95.6	91.7	102	84.3	99.6	107	99.8	93.8	89.5	82.4	103	76.6	106	99.2	99.1	96.3	103	91
O=C(O)C1(C(=O)O)CCC1.[NH2-].[NH2-].[Pt+2] [Carboplatin] (1 nM)	98.9	99	97	100	115	96.6	100	103	103	101	97.5	101	108	104	101	109	95.2	98.8	89.3
COc1cc2c(Oc3ccc4[nH]c(C)cc4c3F)ncnc2cc1OCCCN1CCCC1 [Cediranib] (0.1 nM)	113	101	101	109	113	101	99.9	98.1	93.4	104	103	94.8	100	109	93.3	107	110	103	106
COc1cc2c(Oc3ccc4[nH]c(C)cc4c3F)ncnc2cc1OCCCN1CCCC1 [Cediranib] (1 nM)	104	101	105	106	131	109	102	106	93.9	94.7	98.6	97	104	101	97.8	99.7	113	108	99.8
Cc1ccc(-c2cc(C(F)(F)F)nn2-c2ccc(S(N)(=O)=O)cc2)cc1 [Celecoxib] (1 nM)	96.5	104	96.8	102	88.1	104	95.5	96.8	93.6	95.9	97.4	105	98.8	98	95.1	111	102	102	102
